Results as given in paper PMC5672842 (Chemical Science, 2017).
Where two headings read alike, the source gives them in different places. One block for each compound: values may come before it.

Tests used:
[1] = biological target: T1, α-Glucosidase (A. niger) (Aspergillus niger, UniProt P56526); test: 4-nitrophenyl α-D-glucopyranoside hydrolysis, absorbance […] nm; format: biochemical
T1 sequence (P56526 26-985): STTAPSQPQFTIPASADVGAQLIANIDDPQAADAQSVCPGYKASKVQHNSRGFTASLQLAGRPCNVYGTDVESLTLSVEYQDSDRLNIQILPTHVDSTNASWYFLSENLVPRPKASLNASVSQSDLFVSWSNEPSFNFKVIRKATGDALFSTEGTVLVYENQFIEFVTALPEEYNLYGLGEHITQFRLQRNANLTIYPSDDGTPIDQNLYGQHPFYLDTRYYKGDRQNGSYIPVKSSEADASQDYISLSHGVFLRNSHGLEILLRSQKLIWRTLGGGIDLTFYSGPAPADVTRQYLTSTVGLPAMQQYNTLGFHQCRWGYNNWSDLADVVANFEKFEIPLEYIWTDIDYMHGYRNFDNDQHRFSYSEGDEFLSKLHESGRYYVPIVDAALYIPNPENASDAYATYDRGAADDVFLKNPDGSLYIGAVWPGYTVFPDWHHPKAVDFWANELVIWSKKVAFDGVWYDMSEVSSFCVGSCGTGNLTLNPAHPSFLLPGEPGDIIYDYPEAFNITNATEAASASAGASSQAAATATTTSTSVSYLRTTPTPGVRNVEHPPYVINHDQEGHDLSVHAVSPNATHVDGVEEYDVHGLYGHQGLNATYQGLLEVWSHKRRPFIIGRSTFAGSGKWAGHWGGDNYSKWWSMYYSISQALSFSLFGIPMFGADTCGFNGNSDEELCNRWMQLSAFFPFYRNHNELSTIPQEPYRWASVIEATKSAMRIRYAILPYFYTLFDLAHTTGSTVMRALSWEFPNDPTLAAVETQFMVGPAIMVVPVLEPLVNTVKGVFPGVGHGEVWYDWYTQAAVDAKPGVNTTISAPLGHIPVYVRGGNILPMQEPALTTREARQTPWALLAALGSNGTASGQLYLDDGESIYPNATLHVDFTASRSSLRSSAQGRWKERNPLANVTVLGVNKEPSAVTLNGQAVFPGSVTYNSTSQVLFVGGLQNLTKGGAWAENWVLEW

[2] = biological target: β-Glucosidase (P. chrysosp.) (Phanerodontia chrysosporium, UniProt O74203); test: 4-nitrophenyl β-D-glucopyranoside hydrolysis, absorbance […] nm; format: biochemical; conditions: pH 6.0, 37 °C, phosphate buffer, 10% DMSO
Sequence of β-Glucosidase (P. chrysosp.) (O74203 22-823): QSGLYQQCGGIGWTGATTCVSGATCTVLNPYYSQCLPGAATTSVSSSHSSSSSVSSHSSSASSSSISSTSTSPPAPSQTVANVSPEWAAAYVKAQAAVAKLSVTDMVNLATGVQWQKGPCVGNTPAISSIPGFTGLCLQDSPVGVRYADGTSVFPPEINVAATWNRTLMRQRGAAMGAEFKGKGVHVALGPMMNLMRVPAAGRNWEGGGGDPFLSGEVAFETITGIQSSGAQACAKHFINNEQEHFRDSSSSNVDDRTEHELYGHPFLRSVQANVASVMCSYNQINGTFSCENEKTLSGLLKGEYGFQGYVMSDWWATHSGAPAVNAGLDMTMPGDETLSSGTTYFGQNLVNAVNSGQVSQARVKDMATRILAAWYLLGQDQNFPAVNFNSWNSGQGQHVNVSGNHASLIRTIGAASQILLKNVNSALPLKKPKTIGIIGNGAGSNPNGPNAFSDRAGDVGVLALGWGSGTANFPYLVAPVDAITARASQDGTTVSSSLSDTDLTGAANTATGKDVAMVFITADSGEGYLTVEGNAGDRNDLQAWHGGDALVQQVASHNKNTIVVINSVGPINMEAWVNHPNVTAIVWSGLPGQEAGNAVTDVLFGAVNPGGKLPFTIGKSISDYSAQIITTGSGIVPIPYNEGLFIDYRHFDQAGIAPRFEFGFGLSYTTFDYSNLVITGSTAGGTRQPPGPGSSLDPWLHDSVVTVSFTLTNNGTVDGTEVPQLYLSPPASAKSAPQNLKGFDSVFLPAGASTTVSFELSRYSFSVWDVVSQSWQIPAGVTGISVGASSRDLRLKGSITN

[3] = biological target: α-Glucosidase (B. stearoth.); test: 4-nitrophenyl α-D-glucopyranoside hydrolysis, absorbance […] nm; format: biochemical, Geobacillus stearothermophilus; conditions: read-out: 6; pH 6.0, 37 °C, phosphate buffer, 10% DMSO; competitive
[4] = biological target: β-Glucosidase (A. oryzae); test: 4-nitrophenyl β-D-glucopyranoside hydrolysis, absorbance […] nm; format: biochemical, Aspergillus oryzae; conditions: read-out: 19; pH 6.0, 37 °C, phosphate buffer, 10% DMSO

- Ki [1]: 1.04 µM
- Ki ([2]; read-out: 6, competitive): 2.7 µM
- Ki [3]: 93 µM
Structure (SMILES): OC[C@@H]1[C@@H](O)[C@H](O)[C@@H](O)CN1Cc1c2ccccc2c(Cl)c2ccccc12 [compound 6, N-(10-Chloro-9-anthracenemethyl)-1-deoxynojirimycin]

- Ki [1]: 14.4 µM
- Ki ([2]; read-out: 19): 24.3 µM
- Ki [4]: 169 µM
Structure (SMILES): O=C1[C@H](O)[C@@H](O)[C@H](O)[C@@H](CO)N1Cc1c2ccccc2c(Cl)c2ccccc12 [compound 19, N-(10-Chloro-9-anthracenemethyl)-D-glucono-δ-lactam]

- Ki ([2]; read-out: 15): 0.0103 µM
Structure (SMILES): OC[C@@H]1[C@@H](O)[C@H](O)[C@@H](O)CN1CCCc1c2ccccc2c(Cl)c2ccccc12 [compound 15, 1-(3-(10-Chloroanthracen-9-yl)propyl)-1-deoxynojirimycin]

- Ki ([2]; read-out: 12): 0.0062 µM
Structure (SMILES): OC[C@@H]1[C@@H](O)[C@H](O)[C@@H](O)CN1CCc1c2ccccc2c(Cl)c2ccccc12 [compound 12, 1-(2-(10-Chloroanthracen-9-yl)ethyl)-1-deoxynojirimycin]
